In ChEMBL document CHEMBL4359811, “Development of Potent and Selective Pyrazolopyrimidine IRAK4 Inhibitors” (J Med Chem, 2019):
pIC50, pKi: −log10 of the molar value. In brackets after ≈: the same amount, converted by molar mass.

Experiments:
[1] = target: T1, Interleukin-1 receptor-associated kinase 4 (Homo sapiens, UniProt Q9NWZ3); test: Inhibition of IRAK4 in human THP1-Xblue-MD2-CD14 cells assessed as reduction in LPS-induced NFkappaB transcription by measuring alkaline phosphatase level preincubated for 1 hr followed by LPS stimulation and measured after 20 hrs by quanti-blue reagent based reporter assay
T1 sequence (Q9NWZ3 whole entry): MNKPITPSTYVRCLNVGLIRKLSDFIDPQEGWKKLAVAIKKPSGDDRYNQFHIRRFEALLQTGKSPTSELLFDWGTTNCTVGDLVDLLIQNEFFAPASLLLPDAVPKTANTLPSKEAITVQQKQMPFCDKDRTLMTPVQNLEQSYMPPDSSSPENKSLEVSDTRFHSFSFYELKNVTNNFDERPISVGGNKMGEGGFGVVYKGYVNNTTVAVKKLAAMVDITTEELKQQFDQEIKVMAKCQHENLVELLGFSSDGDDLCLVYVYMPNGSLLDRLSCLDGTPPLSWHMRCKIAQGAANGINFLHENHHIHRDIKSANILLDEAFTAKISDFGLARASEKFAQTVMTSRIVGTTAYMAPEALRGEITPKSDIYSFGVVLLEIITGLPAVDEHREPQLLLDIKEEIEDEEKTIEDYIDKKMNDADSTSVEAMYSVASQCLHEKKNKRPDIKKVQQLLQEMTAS

[2] = Kinetic aqueous solubility of the compound in PBS buffer at pH 7.4 incubated for 24 hrs under shaking condition by LC-CLND assay; type: physicochemical; settings: PBS buffer, pH 7.4; read-out: Kinetic_solubility
[3] = Apparent permeability from apical to basolateral side in MDCK cells at 10 uM incubated for 180 mins and measured up to 180 min by LC-MS/MS analysis; type: ADME, cell-based, Canis lupus familiaris; settings: dog
[4] = species: Homo sapiens; test: Selectivity ratio, ratio of Ki for human recombinant full length N-terminal His6-tagged IRAK1 (Argl94 to Ser712 residues) expressed in insect cells to Ki for human recombinant full length His6-tagged IRAK4 expressed in baculovirus expression system
[5] = Blood clearance in mouse at 1 mg/kg, iv; type: ADME, organism-based; settings: whole blood
[6] = Protein binding in mouse plasma at 5 uM incubated for 4 hrs by LC-MS/MS analysis; type: ADME, cell-free; settings: read-out: PPB (converted)
[7] = target: Interleukin-1 receptor-associated kinase 1 (Homo sapiens, UniProt P51617); test: Inhibition of human recombinant full length N-terminal His6-tagged IRAK1 (Argl94 to Ser712 residues) expressed in insect cells using H-KKARFSRFAGSSPSQSSMVAR as substrate incubated for 60 mins by fluorescence polarisation assay
[8] = Protein binding in human plasma at 5 uM incubated for 4 hrs by LC-MS/MS analysis; type: ADME, cell-free; settings: read-out: PPB (converted)
[9] = target: T1, Interleukin-1 receptor-associated kinase 4; test: Inhibition of human recombinant full length His6-tagged IRAK4 expressed in baculovirus expression system using H-KKARFSRFAGSSPSQSSMVAR as substrate incubated for 90 mins by fluorescence polarisation assay
[10] = AUC (infinity) in mouse at 5 mg/kg, po; type: ADME, organism-based; parameters: dose 5 mg/kg, route oral, time infinity; settings: in vivo
[11] = Oral bioavailability in mouse at 5 mg/kg; type: ADME, organism-based; settings: in vivo
[12] = Volume of distribution at steady state in mouse at 1 mg/kg, iv; type: ADME, organism-based; settings: in vivo, read-out: Vdss
[13] = Cmax in mouse at 5 mg/kg, po; type: ADME, organism-based; parameters: dose 5 mg/kg, route oral; settings: in vivo, read-out: Cmax
[14] = Lipophilicity, log D of the compound; type: physicochemical; settings: octanol/water
[15] = Cytotoxicity against human THP1-Xblue-MD2-CD14 cells assessed as reduction in cell viability up to 20 uM preincubated for 1 hr followed by LPS stimulation and measured after 20 hrs; type: cell-based
[16] = target: T1, Interleukin-1 receptor-associated kinase 4; test: Inhibition of recombinant IRAK4 (unknown origin) using KKARFSRFAGSSPSQSSMVAR as substrate in presence of [gamma33P]-ATP by liquid scintillation counting method
[17] = target: T2, Interleukin-1 receptor-associated kinase 4 (Homo sapiens) (UniProt Q9NWZ3); test: Inhibition of human recombinant full length His6-tagged IRAK4 expressed in baculovirus expression system at 1 uM relative to control
T2 sequence (whole entry): T1 sequence (Q9NWZ3 whole entry)

Interleukin-1 receptor-associated kinase 1, sequence (P51617 whole entry): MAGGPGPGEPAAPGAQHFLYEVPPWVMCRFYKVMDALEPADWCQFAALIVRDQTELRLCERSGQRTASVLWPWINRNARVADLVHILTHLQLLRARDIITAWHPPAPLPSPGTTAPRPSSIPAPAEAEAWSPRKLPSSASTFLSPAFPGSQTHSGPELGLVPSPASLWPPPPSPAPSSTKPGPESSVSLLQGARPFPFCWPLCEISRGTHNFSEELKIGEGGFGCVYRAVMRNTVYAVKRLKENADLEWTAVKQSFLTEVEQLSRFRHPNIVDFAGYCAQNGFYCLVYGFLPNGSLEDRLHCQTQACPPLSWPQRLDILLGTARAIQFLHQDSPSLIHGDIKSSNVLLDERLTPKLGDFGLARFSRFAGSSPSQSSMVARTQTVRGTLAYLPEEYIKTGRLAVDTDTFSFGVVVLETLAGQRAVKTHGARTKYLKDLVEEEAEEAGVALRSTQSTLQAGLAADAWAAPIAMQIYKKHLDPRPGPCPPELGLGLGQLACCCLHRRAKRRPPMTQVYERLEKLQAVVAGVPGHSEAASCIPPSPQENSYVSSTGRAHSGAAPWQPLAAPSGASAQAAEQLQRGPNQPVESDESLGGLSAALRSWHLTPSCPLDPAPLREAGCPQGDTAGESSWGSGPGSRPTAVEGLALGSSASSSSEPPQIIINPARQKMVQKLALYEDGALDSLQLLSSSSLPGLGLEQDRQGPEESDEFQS

| pIC50 [1] | solubility kinetic at 24 h [2] [µM] | Papp A→B at 3 h, 10 µM [3] [nm/s] | pKi [7] | pKi [9] | SMILES | further results |
| --- | --- | --- | --- | --- | --- | --- |
| 7.42 | 95 (≈ 40 µg/mL) | 160 |  |  | CC1(C)Cc2cc(NC(=O)c3cnn4cccnc34)c(N3CCC(CO)CC3)cc2O1 | Ratio Ki [4]: 210 |
| 7.18 | 15 (≈ 6.35 µg/mL) | 180 |  |  | CC1(C)Cc2cc(NC(=O)c3cnn4cc(CO)cnc34)c(N3CCOCC3)cc2O1 |  |
| 6.48 | 3.1 (≈ 1.27 µg/mL) | 140 |  | 8.49 | CC1(C)Cc2cc(NC(=O)c3cnn4cc(O)cnc34)c(N3CCOCC3)cc2O1 |  |
| 6.77 | 1 (≈ 0.393 µg/mL) | 140 |  | 8.28 | CC1(C)Cc2cc(NC(=O)c3cnn4cccnc34)c(N3CCOCC3)cc2O1 | Ratio Ki [4]: 220 |
| 7.60 | 10 (≈ 4.5 µg/mL) | 26 |  | 8.68 | CC1(C)Cc2cc(NC(=O)c3cnn4cccnc34)c(N3CCN(CC(N)=O)CC3)cc2O1 |  |
| < 4.70 | 1 (≈ 0.434 µg/mL) |  |  |  | CC1(C)Cc2cc(NC(=O)c3cnn4cc(C5CC5)cnc34)c(N3CCOCC3)cc2O1 |  |
| 7.25 | 110 (≈ 43.2 µg/mL) |  |  |  | CC1(C)Cc2cc(NC(=O)c3cnn4cccnc34)c(N3CCNCC3)cc2O1 |  |
| 6.85 | 7.1 (≈ 2.68 µg/mL) |  |  |  | CC1(C)Cc2cc(NC(=O)c3cnn4cccnc34)c(N3CCCC3)cc2O1 |  |
| < 4.70 | 77 (≈ 31.5 µg/mL) |  |  | < 5.08 | CC1(C)Cc2cc(NC(=O)c3cnn4c(O)ccnc34)c(N3CCOCC3)cc2O1 |  |
| 7.01 | 120 (≈ 52.4 µg/mL) | 82 |  |  | CC1(C)Cc2cc(NC(=O)c3cnn4cccnc34)c(N3CCN(CCO)CC3)cc2O1 |  |

The remaining lines, values behind:

| SMILES | pIC50 [1] | solubility kinetic at 24 h [2] [µM] | Papp A→B at 3 h, 10 µM [3] [nm/s] | pKi [7] | pKi [9] | further results |
| --- | --- | --- | --- | --- | --- | --- |
| Cn1c(N2CCOCC2)nc2cc(N3CCC(CO)CC3)c(NC(=O)c3cnn4cccnc34)cc21 | 7.01 |  | 24 | < 5.21 | 8.74 | clearance [5]: 1.38 L/h/kg; fraction unbound at 4 h, 5 µM [6]: 0.05; fraction unbound at 4 h, 5 µM [8]: 0.12; AUC(0-inf) [10]: 500 nM·h; bioavailability [11]: 3%; Vd [12]: 0.4 L/kg; Cmax [13]: 0.2 µM |
| O=C(Nc1cc2[nH]cnc2cc1N1CCC(CO)CC1)c1cnn2cccnc12 | 6.48 |  |  | < 5.24 | 8.17 |  |
| O=C(Nc1cc2oc(N3CCOCC3)nc2cc1N1CCC(CO)CC1)c1cnn2cccnc12 | 7.22 |  |  | 6.47 | 8.92 |  |
| NCC1CCN(c2cc3ncccc3cc2NC(=O)c2cnn3cccnc23)CC1 | 7.39 | 22 (≈ 8.83 µg/mL) |  | 6.29 | 8.70 | logD [14]: 0.79; Ratio Ki [4]: > 200; Activity [15]: Non-Toxic |
| COc1cc2cc[nH]c2cc1NC(=O)c1cnn2cccnc12 |  |  |  |  |  | pKi [16]: 6.10 |
| COc1cc2cccnc2cc1NC(=O)c1cnn2cccnc12 |  |  |  |  |  | pKi [16]: < 4.52 |
| CN(C)c1nc2cc(N3CCC(CO)CC3)c(NC(=O)c3cnn4cccnc34)cc2s1 | 7.28 |  |  | 7.02 | 9.30 | inhibition [17]: > 70% |
| CN(C)c1ccc2cc(NC(=O)c3cnn4cccnc34)c(N3CCCCC3)cc2n1 | 7.01 |  |  | 6.30 | 7.59 |  |
| O=C(Nc1cc2[nH]c(N3CCOCC3)nc2cc1N1CCC(CO)CC1)c1cnn2cccnc12 | 6.60 |  |  | < 5.26 | 8.77 |  |
| O=C(Nc1cc2cccnc2cc1N1CCC(CO)CC1)c1cnn2cccnc12 | 7.46 | 1 (≈ 0.402 µg/mL) |  | 6.40 | 8.77 | logD [14]: 3.1; Ratio Ki [4]: > 200; Activity [15]: Non-Toxic |
